US7998995B2 (Exelixis Patent Company LLC, priority 2006, dated 2011)

tested on: T1, LXR; assay: Measured EC50 or IC50 for LXR (LXRα and/or LXRβ; assay and subtype not given); settings: IC50 or EC50 class, subtype not specified
T1 construct: fused on or other part: GST fused to the LBD in the FRET assay
Protocol: Measured EC50 or IC50 for LXR, and FXR for Compounds of the Invention
LXR and FXR activities for various compounds of the invention are presented in the following table; those compounds with EC50 or IC50 values <10 μM for at least one of LXRα, LXRβ or FXR are considered to be active. In the following Table, IC50 or EC50 data is represented as follows: A<1 μM, B=1-10 μm, and C>10 μM.

| Structure (SMILES) | EC50 |
| --- | --- |
| CS(=O)(=O)c1cccc(-c2ccc(NCc3cc(C(F)(F)F)nn3-c3ccccc3Cl)cc2)c1 [Example 928, N-{[1-(2-chlorophenyl)-3-(trifluoromethyl)-1H-pyrazol-5-yl]methyl}-3′-(methylsulfonyl)biphenyl-4-amine] | < 1 µM |
| COc1cc(-c2ccc(-c3cccc(S(C)(=O)=O)c3)s2)n(-c2ccccc2Cl)n1 [Example 933, 1-(2-chlorophenyl)-3-(methyloxy)-5-{5-[3-(methylsulfonyl)phenyl]-2-thienyl}-1H-pyrazole] | > 10 µM |
| CC1(C)COC(c2cn(-c3ccc(-c4cccc(S(C)(=O)=O)c4)cc3Cl)c(-c3c(Cl)cccc3Cl)n2)=N1 [Example 934, 2-{1-[3-chloro-3′-(methylsulfonyl)biphenyl-4-yl]-2-(2,6-dichlorophenyl)-1H-imidazol-4-yl}-4,4-dimethyl-4,5-dihydro-1,3-oxazole] | < 1 µM |
| CCS(=O)(=O)c1cccc(-c2ccc(-n3cc(C4=NC(C)(C)CO4)nc3-c3c(Cl)cccc3Cl)c(Cl)c2)c1 [Example 935, 2-{1-[3-chloro-3′-(ethylsulfonyl)biphenyl-4-yl]-2-(2,6-dichlorophenyl)-1H-imidazol-4-yl}-4,4-dimethyl-4,5-dihydro-1,3-oxazole] | < 1 µM |
| CS(=O)(=O)c1cccc(-c2ccc(-n3cc(C4=NCCO4)nc3-c3c(Cl)cccc3Cl)c(Cl)c2)c1 [Example 936, 2-{1-[3-chloro-3′-(methylsulfonyl)biphenyl-4-yl]-2-(2,6-dichlorophenyl)-1H-imidazol-4-yl}-4,5-dihydro-1,3-oxazole] | < 1 µM |
| CC1CN=C(c2cn(-c3ccc(-c4cccc(S(C)(=O)=O)c4)cc3Cl)c(-c3c(Cl)cccc3Cl)n2)O1 (stereo not shown) [Example 937, 2-{1-[3-chloro-3′-(methylsulfonyl)biphenyl-4-yl]-2-(2,6-dichlorophenyl)-1H-imidazol-4-yl}-5-methyl-4,5-dihydro-1,3-oxazole] | < 1 µM |
| CC1COC(c2cn(-c3ccc(-c4cccc(S(C)(=O)=O)c4)cc3Cl)c(-c3c(Cl)cccc3Cl)n2)=N1 (stereo not shown) [Example 938, 2-{1-[3-chloro-3′-(methylsulfonyl)biphenyl-4-yl]-2-(2,6-dichlorophenyl)-1H-imidazol-4-yl}-4-methyl-4,5-dihydro-1,3-oxazole] | < 1 µM |
| CC1(C)COC(c2cn(-c3ccc(-c4cccc(S(C)(=O)=O)c4)cc3)c(-c3c(Cl)cccc3Cl)n2)=N1 [Example 939, 2-{2-(2,6-dichlorophenyl)-1-[3′-(methylsulfonyl)biphenyl-4-yl]-1H-imidazol-4-yl}-4,4-dimethyl-4,5-dihydro-1,3-oxazole] | < 1 µM |
| CC1(C)CSC(c2cn(-c3ccc(-c4cccc(S(C)(=O)=O)c4)cc3Cl)c(-c3c(Cl)cccc3Cl)n2)=N1 [Example 940, 2-{1-[3-chloro-3′-(methylsulfonyl)biphenyl-4-yl]-2-(2,6-dichlorophenyl)-1H-imidazol-4-yl}-4,4-dimethyl-4,5-dihydro-1,3-thiazole] | < 1 µM |
| CS(=O)(=O)c1cccc(-c2ccc(-n3cc(C4=NCCN4)nc3-c3c(Cl)cccc3Cl)c(Cl)c2)c1 [Example 941, 1′-[3-chloro-3′-(methylsulfonyl)biphenyl-4-yl]-2′-(2,6-dichlorophenyl)-4,5-dihydro-1H,1′H-2,4′-biimidazole] | 1 to 10 µM |
| CC1(C)CN=C(c2cn(-c3ccc(-c4cccc(S(C)(=O)=O)c4)cc3Cl)c(-c3c(Cl)cccc3Cl)n2)N1 [Example 942, 1′-[3-chloro-3′-(methylsulfonyl)biphenyl-4-yl]-2′-(2,6-dichlorophenyl)-5,5-dimethyl-4,5-dihydro-1H,1′H-2,4′-biimidazole] | > 10 µM |
| CC1(C)CN=C(c2cn(-c3ccc(-c4cccc(S(C)(=O)=O)c4)cc3)c(-c3c(Cl)cccc3Cl)n2)N1 [Example 943, 2′-(2,6-dichlorophenyl)-5,5-dimethyl-1′-[3′-(methysulfonyl)biphenyl-4-yl]-4,5-dihydro-1H,1′H-2,4′-biimidazole] | > 10 µM |
| Cc1noc(-c2cn(-c3ccc(-c4cccc(S(C)(=O)=O)c4)cc3Cl)c(-c3c(Cl)cccc3Cl)n2)n1 [Example 944, 5-{1-[3-chloro-3′-(methylsulfonyl)biphenyl-4-yl]-2-(2,6-dichlorophenyl)-1H-imidazol-4-yl}-3-methyl-1,2,4-oxadiazole] | < 1 µM |
| CC(C)(c1ccccc1Cl)c1nc(C2CCCN2)cn1-c1ccc(-c2cccc(S(C)(=O)=O)c2)cc1 (stereo not shown) [Example 976, 2-[1-(2-Chlorophenyl)-1-methylethyl]-1-[3′-(methylsulfonyl)biphenyl-4-yl]-4-pyrrolidin-2-yl-1H-imidazole] | 1 to 10 µM |
| COC(=O)N1CCCC1c1cn(-c2ccc(-c3cccc(S(C)(=O)=O)c3)cc2)c(C(C)(C)c2ccccc2Cl)n1 (stereo not shown) [Example 977, Methyl 2-{2-[1-(2-chlorophenyl)-1-methylethyl]-1-[3′-(methylsulfonyl)biphenyl-4-yl]-1H-imidazol-4-yl}pyrrolidine-1-carboxylate] | < 1 µM |
| CC(=O)N1CCCC1c1cn(-c2ccc(-c3cccc(S(C)(=O)=O)c3)cc2)c(C(C)(C)c2ccccc2Cl)n1 (stereo not shown) [Example 978, 4-(1-acetylpyrrolidin-2-yl)-2-[1-(2-chlorophenyl)-1-methylethyl]-1-[3′-(methylsulfonyl)biphenyl-4-yl]-1H-imidazole] | < 1 µM |

| Structure (SMILES) | EC50 |
| --- | --- |
| CN1CCCC1c1cn(-c2ccc(-c3cccc(S(C)(=O)=O)c3)cc2)c(C(C)(C)c2ccccc2Cl)n1 (stereo not shown) [Example 979, 2-[1-(2-chlorophenyl)-1-methylethyl]-4-(1-methylpyrrolidin-2-yl)-1-[3′-(methylsulfonyl)biphenyl-4-l]-1H-imidazole] | 1 to 10 µM |
| CS(=O)(=O)c1cccc(-c2ccc(-n3cc(C4(O)CC4)nc3-c3ccccc3Cl)cc2)c1 [Example 980, 1-(2-(2-chlorophenyl)-1-(3′-(methylsulfonyl)biphenyl-4-yl)-1H-imidazol-4-yl)cyclopropanol] | < 1 µM |
| CS(=O)(=O)c1cccc(-c2ccc(-n3cc(C4(O)CCCC4)nc3-c3ccccc3Cl)cc2)c1 [Example 981, 1-(2-(2-chlorophenyl)-1-(3′-(methylsulfonyl)biphenyl-4-yl)-1H-imidazol-4-yl)cyclopentanol] | 1 to 10 µM |
| CC1(C)CC(=O)C=C(c2cn(-c3ccc(-c4cccc(S(C)(=O)=O)c4)cc3Cl)c(-c3ccccc3Cl)n2)O1 [Example 982, 6-[1-(3-Chloro-3′-methanesulfonyl-biphenyl-4-yl)-2-(2-chlorophenyl)-1-H-imidazol-4-yl]-2,2-dimethyl-2,3-dihydro-pyran-4-one] | < 1 µM |
| CN1CC(c2cn(-c3ccc(-c4cccc(S(C)(=O)=O)c4)cc3Cl)c(-c3ccccc3Cl)n2)CC1=O (stereo not shown) [Example 984, 4-[1-(3-Chloro-3′-methanesulfonyl-biphenyl-4-yl)-2-(2-chlorophenyl)-1-H-imidazol-4-yl]-1-methyl-pyrrolidin-2-one] | < 1 µM |
| CS(=O)(=O)c1cccc(-c2ccc(-n3cc(-c4cc(C(F)(F)F)on4)nc3-c3ccccc3Cl)c(Cl)c2)c1 [Example 990, 3-(1-(3-chloro-3′-(methylsulfonyl)biphenyl-4-yl)-2-(2-chlorophenyl)-1H-imidazol-4-yl)-5-(trifluoromethyl)isoxazole] | 1 to 10 µM |
| CS(=O)(=O)c1cccc(-c2ccc(-n3cc(C4CC4)nc3-c3ccccc3C(F)(F)F)cc2)c1 [Example 991, 4-cyclopropyl-1-(3′-(methylsulfonyl)biphenyl-4-yl)-2-(2-(trifluoromethyl)phenyl)-1H-imdazole] | < 1 µM |
| CS(=O)(=O)c1cccc(-c2ccc(-n3cc(-c4ccsc4)nc3-c3cccc(Cl)c3Cl)cc2)c1 [Example 992, 2-(2,3-dichlorophenyl)-1-(3′-(methylsulfonyl)biphenyl-4-yl)-4-(thiophen-3-yl)-1H-imidazole] | < 1 µM |
| Cc1cscc1-c1cn(-c2ccc(-c3cccc(S(C)(=O)=O)c3)cc2)c(-c2ccccc2C(F)(F)F)n1 [Example 993, 1-(3′-(methylsulfonyl)biphenyl-4-yl)-4-(4-methylthiophen-3-yl)-2-(2-(trifluoromethyl)phenyl)-1H-imidazole] | 1 to 10 µM |
| Cn1cc(-c2cn(-c3ccc(-c4cccc(S(C)(=O)=O)c4)cc3)c(-c3ccccc3C(F)(F)F)n2)cn1 [Example 994, 1-methyl-4-(1-(3′-(methylsulfonyl)biphenyl-4-yl)-2-(2-(trifluoromethyl)phenyl)-1H-imidazol-4-yl)-1H-pyrazole] | < 1 µM |
| CS(=O)(=O)c1cccc(-c2ccc(-n3cc(-c4ccoc4)nc3-c3ccccc3C(F)(F)F)cc2)c1 [Example 995, 4-(furan-3-yl)-1-(3′-(methylsulfonyl)biphenyl-4-yl)-2-(2-(trifluoromethyl)phenyl)-1H-imidazole] | < 1 µM |
| CS(=O)(=O)c1cccc(-c2ccc(-n3cc(-c4ccsc4)nc3-c3ccccc3C(F)(F)F)cc2)c1 [Example 996, 1-(3′-(methylsulfonyl)biphenyl-4-yl)-4-(thiophen-3-yl)-2-(2-(trifluoromethyl)phenyl)-1H-imidazole] | < 1 µM |
| CS(=O)(=O)c1cccc(-c2ccc(-n3cc(-c4ccsc4)nc3-c3ccccc3Cl)c(Cl)c2)c1 [Example 997, 1-(3-chloro-3′-(methylsulfonyl)biphenyl-4-yl)-2-(2-chlorophenyl)-4-(thiophen-3-yl)-1H-imidazole] | < 1 µM |
| CS(=O)(=O)c1cccc(-c2ccc(-n3cc(N4CCC4)nc3-c3ccccc3C(F)(F)F)cc2)c1 [Example 998, 4-(azetidin-1-yl)-1-(3′-(methylsulfonyl)biphenyl-4-yl)-2-(2-(trifluoromethyl)phenyl)-1H-imidazole] | < 1 µM |
| CS(=O)(=O)c1cccc(-c2ccc(-n3cc(-n4cccn4)nc3-c3c(Cl)cccc3Cl)cc2)c1 [Example 999, 1-{2-(2,6-dichlorophenyl)-1-[3′-(methylsulfonyl)biphenyl-4-yl]-1H-imidazol-4-yl}-1H-pyrazole] | < 1 µM |
